Results as given in US20060293307A1, “Oxazolidinone derivatives as antimicrobials” (priority 2002, published 2006).
Values after ≈ are worked out from the molar mass of the structure shown. Where two headings read alike, the source gives them in different places.

What was measured:
H. influenzae 35056 = assay: MIC against Haemophilus strains; type: cell-based; settings: s. No. 1, H. influenzae 35056
H. influenzae ATCC 49247 = assay: MIC against Haemophilus strains; type: cell-based; settings: s. No. 2, H. influenzae ATCC 49247
H. influenzae βIac = assay: MIC against Haemophilus strains; type: cell-based; settings: s. No. 3, H. influenzae βIac
H. influenzae R = assay: MIC against Haemophilus strains; type: cell-based; settings: s. No. 4, H. influenzae R
H. influenzae 23 = assay: MIC against Haemophilus strains; type: cell-based; settings: s. No. 5, H. influenzae 23
H. influenzae 49766 = assay: MIC against Haemophilus strains; type: cell-based; settings: s. No. 6, H. influenzae 49766
H. influenzae 1381 = assay: MIC against Haemophilus strains; type: cell-based; settings: s. No. 7, H. influenzae 1381
H. influenzae 451 = assay: MIC against Haemophilus strains; type: cell-based; settings: s. No. 8, H. influenzae 451
H. influenzae 1745 = assay: MIC against Haemophilus strains; type: cell-based; settings: s. No. 9, H. influenzae 1745
H. influenzae P318 = assay: MIC against Haemophilus strains; type: cell-based; settings: s. No. 10, H. influenzae P318
H. influenzae 474 = assay: MIC against Haemophilus strains; type: cell-based; settings: s. No. 11, H. influenzae 474
[1] = Haemophilus influenzae, read-out: MIC

With `C[C@H]1COc2c(N3CCN(C)CC3)c(F)cc3c(=O)c(C(=O)O)cn1c23` [LevoFloxaci, reference compound] the MIC (H. influenzae 35056) was 0.015 µg/mL (≈ 0.0415 µM), the MIC (H. influenzae ATCC 49247) was 0.015 µg/mL (≈ 0.0415 µM) and the MIC (H. influenzae βIac) was 0.008 µg/mL (≈ 0.0221 µM). For the same compound, the MIC (H. influenzae R) was 0.015 µg/mL (≈ 0.0415 µM), the MIC (H. influenzae 23) was 0.015 µg/mL (≈ 0.0415 µM) and the MIC (H. influenzae 49766) was 0.03 µg/mL (≈ 0.083 µM). For the same compound, the MIC (H. influenzae 1381) was 0.015 µg/mL (≈ 0.0415 µM), the MIC (H. influenzae 451) was 0.015 µg/mL (≈ 0.0415 µM) and the MIC (H. influenzae 1745) was 0.03 µg/mL (≈ 0.083 µM). The MIC (H. influenzae P318) was 0.03 µg/mL (≈ 0.083 µM) and the MIC (H. influenzae 474) was 0.015 µg/mL (≈ 0.0415 µM).
Work on `CC[C@H]1OC(=O)[C@H](C)C(=O)[C@H](C)[C@@H](O[C@@H]2O[C@H](C)C[C@H](N(C)C)[C@H]2O)[C@](C)(OC)C[C@@H](C)C(=O)[C@H](C)[C@H]2N(CCCCn3cnc(-c4cccnc4)c3)C(=O)O[C@]12C` [Telithromycin, reference compound] yielded an MIC (H. influenzae 35056; [1]) of 2 µg/mL (≈ 2.46 µM), an MIC (H. influenzae ATCC 49247; Haemophilus influenzae, ATCC49247, read-out: MIC) of 2 µg/mL (≈ 2.46 µM) and an MIC (H. influenzae βIac; [1]) of 2 µg/mL (≈ 2.46 µM). It also gave an MIC (H. influenzae R; [1]) of 2 µg/mL (≈ 2.46 µM), an MIC (H. influenzae 23; [1]) of 2 µg/mL (≈ 2.46 µM) and an MIC (H. influenzae 49766; [1]) of 2 µg/mL (≈ 2.46 µM). The MIC (H. influenzae 1381; [1]) was 2 µg/mL (≈ 2.46 µM), the MIC (H. influenzae 451; [1]) was 2 µg/mL (≈ 2.46 µM) and the MIC (H. influenzae 1745; [1]) was 1 µg/mL (≈ 1.23 µM). The MIC (H. influenzae P318; [1]) was 1 µg/mL (≈ 1.23 µM) and the MIC (H. influenzae 474; [1]) was 2 µg/mL (≈ 2.46 µM).
`O=C(CF)NC[C@H]1CN(c2ccc(N3CCN(c4ccc([N+](=O)[O-])s4)CC3)c(F)c2)C(=O)O1` gave a melting point of 145 to 150 °C.
Compound `CO/N=C(\C(=O)N[C@@H]1C(=O)N2C(C(=O)O)=C(CSc3nc(=O)c(O)nn3C)CS[C@H]12)c1csc(N)n1` [Ceftriaxone, reference compound] has an MIC (H. influenzae 35056) of 0.06 µg/mL (≈ 0.108 µM), an MIC (H. influenzae ATCC 49247) of 0.125 µg/mL (≈ 0.225 µM) and an MIC (H. influenzae βIac) of less than 0.002 µg/mL. For the same compound, the MIC (H. influenzae R) was 0.004 µg/mL (≈ 0.00721 µM), the MIC (H. influenzae 23) was 0.004 µg/mL (≈ 0.00721 µM) and the MIC (H. influenzae 49766) was 0.008 µg/mL (≈ 0.0144 µM). It also gave an MIC (H. influenzae 1381) of 0.008 µg/mL (≈ 0.0144 µM), an MIC (H. influenzae 451) of 0.008 µg/mL (≈ 0.0144 µM) and an MIC (H. influenzae 1745) of 0.004 µg/mL (≈ 0.00721 µM). The MIC (H. influenzae P318) was 0.015 µg/mL (≈ 0.027 µM) and the MIC (H. influenzae 474) was 0.004 µg/mL (≈ 0.00721 µM).
